For seven compounds, MIC results are on record in publication PMC9822072, “Synthesis and Structure–Activity Relationship of 2,6-Disubstituted Thiosemicarbazone Derivatives of Pyridine as Potential Antituberculosis Agents” (Materials, 2023).

The term MIC denotes the lowest concentration found to suppress growth.

SMILES strings stand for the structures. ≈ marks a conversion by molar mass, not a printed value.

This test deals with M. tuberculosis Spec. 210 (resistant strain isolated from TB patients). Nature of the test: Tuberculostatic activity, twofold serial microdilution with Alamar Blue. The test is classed as cell-based. To be noted: Mycobacterium tuberculosis, 504 h, read-out: MIC Spec. 210.

For `NC(=NNC(=S)N1CCOCC1)c1cccc(N2CCCC2)n1` [Compound 4, N’-(Morpholine-4-Carbonothioyl)-6-(Pyrrolidin-1-Yl)Picolinohydrazonamide], the minimal inhibitory concentration (MIC) was determined as 4 µg/mL (≈ 12 µM). For `NC(=NNC(=S)N1CCCC1)c1cccc(N2CCCC2)n1` [Compound 5, 6-(Pyrrolidin-1-Yl)-N’-(Pyrrolidine-1-Carbonothioyl)Picolinohydrazonamide] the value was 1 µg/mL (≈ 3.14 µM); for `NC(=NNC(=S)N1CCOCC1)c1cccc(N2CCCCC2)n1` [Compound 6, N’-(Morpholine-4-Carbonothioyl)-6-(Piperidin-1-Yl)Picolinohydrazonamide], 1 µg/mL (≈ 2.87 µM); for `NC(=NNC(=S)N1CCCC1)c1cccc(N2CCCCC2)n1` [Compound 7, 6-(Piperidin-1-Yl)-N’-(Pyrrolidine-1-Carbonothioyl)Picolinohydrazonamide], 0.5 µg/mL (≈ 1.5 µM).

On to `NC(=NNC(=S)N1CCOCC1)c1cccc(Oc2ccccc2)n1` [Compound 8, N’-(Morpholine-4-Carbonothioyl)-6-Phenoxypicolinohydrazonamide], for which the MIC amounted to 4 µg/mL (≈ 11.2 µM). As for `NC(=NNC(=S)N1CCCC1)c1cccc(Oc2ccccc2)n1` [Compound 9, 6-Phenoxy-N’-(Pyrrolidine-1-Carbonothioyl)Picolinohydrazonamide], the MIC stood at 4 µg/mL (≈ 11.7 µM). For `NNC(=O)c1ccncc1` [INH, isoniazid, reference compound] the value was 8 µg/mL (≈ 58.3 µM).
